Experimental data as given in patent publication US7579167B2, “Polypeptides involved in the biosynthesis of spiramycins, nucleotide sequences encoding these polypeptides and applications thereof” (Aventis Pharma S., priority 2002, dated 2009).

How the values were obtained:
[1] = comparison with spiramycins II and III; cited from earlier work

From the text for Micrococcus luteus: The strain of Micrococcus luteus used is a strain naturally sensitive to spiramycin but resistant to congocidine.

Structure (SMILES)	antibiotic activity compared with spiramycins II and III [1]	activity compared with the spiramycin of origin with the methyl group at position 4 (less active by a factor) (Micrococcus luteus; microbiological test on a sensitive strain of M. luteus)	microbiological activity compared with the unmodified spiramycin (weaker) (Micrococcus luteus; tested on the microorganism Micrococcus luteus, relative to unmodified spiramycin) [fold]
CO[C@@H]1[C@@H](O[C@@H]2O[C@H](C)[C@@H](O[C@H]3C[C@@](C)(O)[C@@H](O)[C@H](C)O3)[C@H](N(C)C)[C@H]2O)[C@@H](CC=O)C[C@@H](C)[C@@H](O[C@H]2CC[C@H](N(C)C)[C@@H](C)O2)/C=C/C=C/C[C@@H](C)OC(=O)C[C@H]1O [spiramycin I]	clearly greater	–	–
CC1CC=CC=CC(OC2CCC(N(C)C)C(C)O2)C(C)CC(CC=O)C(OC2OC(C)C(OC3CC(C)(O)C(O)C(C)O3)C(N(C)C)C2O)C(O)C(O)CC(=O)O1 (stereo not drawn) [spiramycin without the methyl group]	–	10	10
